# Experimental data taken from US20030114357A1, “Methods related to the A-C repeat Z-sequence upstream from the aldose reductase gene” (priority 2001, published 2003).
# Tests used:
# [1] = test system: subjects with painful, symmetrical polyneuropathy; assay: Composite neuroelectrophysiology (NE) parameter (modified O'Brien score), double-blind study placebo vs zopolrestat, 12 week change; type: in vivo, human; details: placebo vs combined treatment groups (250 and 500 mg zopolrestat dose)
# Source text: (§1) Diabetic neuropathy, a complication arising from diabetes mellitus, is an example of conditions that are mediated by having at least one allele of the (A-C)n repeat Z sequence associated with the aldose reductase gene wherein the value of n is less than 24. […] Such evaluation may be performed by measuring changes in nerve conduction velocity (NCV) in the following nerves: median motor, ulnar sensory, median sensory (both distal and proximal segments), peroneal motor and sural sensory. Testing is performed prior to the initiation of administration of the Agent and one or more times thereafter. An exemplary schedule for neuroelectrophysiology evaluation is prior to initiation of administration of the Agent and at weeks 12, 24 and 52 following initiation of administration.
# (§2) Tables 1 and 2 illustrate the effect of administration of the aldose reductase inhibitor, zopolrestat, on NCV of subjects having one and two alleles of the Z sequence having less than 24 A-C repeats. […] The NCV results from Tables 1 and 2 where obtained according to the protocol described in Example 2 of the General Experimental Procedures.
# Composite NE parameter is calculated according to the technique described in O'Brien, P. C., Biometrics, 40, 1079-1087 (1984). For ease of interpretation, the standard composite NE parameter of O'Brien is slightly modified for Tables 1 and 2. The standard O'Brien method would give values of 0 to 1. For the modified O'Brien score, the standard O'Brien value is reduced by 0.5 to give a value in the range of −0.5 to 0.5 with an expected value of 0. Values lower than 0 correspond to an overall composite NE decrease relative to the entire patient population, while values greater than 0 correspond to a relative increase.
# (§3) The terms “1 short” and “2 short” as used in Tables 1 and 2 refers to the number of alleles found in each subject where n has a value of less than 24 for the (A-C)n repeat Z sequence. “1 short” refers to subjects having only one allele wherein n is less than 24. “2 short” refers to subjects having two alleles wherein n is less than 24. […]
# [2] = test system: subjects with painful, symmetrical polyneuropathy; assay: Peroneal motor nerve conduction velocity (NCV), double-blind study placebo vs zopolrestat, 12 week change; type: in vivo, human; details: placebo vs combined treatment groups (250 and 500 mg zopolrestat dose)
# Source text: as §1, §2, §3
# Nerve Conduction Velocity (“NCV”) is defined as the maximal speed in which Compound Action Potentials are propagated within a nerve, generally reflecting the activity in the fastest and largest neurons and calculated in meters per second by dividing distance in mm by Latency. […]
# 3. […] Skin temperature is measured prior to and at the conclusion of testing at sites midway between the stimulating and recording electrodes for each limb. Temperature is monitored and adjusted during testing using either a feedback controlled infrared radiant heater, a water bath or a temperature controlled blanket wrap. […]
compound,measurement,setting,value
O=C(O)Cc1nn(Cc2nc3cc(C(F)(F)F)ccc3s2)c(=O)c2ccccc12 [zopolrestat],Composite NE Parameter (modified) 12 Week Change Mean Treatment Effect,[1]; Group 1 Short (only one Z-sequence allele n<24),0.04
same,Composite NE Parameter (modified) 12 Week Change Mean Treatment Effect,[1]; Group 2 Short (two Z-sequence alleles n<24),0.09
same,Composite NE Parameter (modified) 12 Week Change Mean Treatment Effect,"[1]; Group Combined, range -0.5 to 0.5",0.07
same,Peroneal Motor 12 Week Change Mean Treatment Effect,[2]; Group 1 Short (subjects with only one Z-sequence allele n<24),0.22
same,Peroneal Motor 12 Week Change Mean Treatment Effect,[2]; Group 2 Short (subjects with two Z-sequence alleles n<24),2.35
same,Peroneal Motor 12 Week Change Mean Treatment Effect,"[2]; Group Combined (1 short + 2 short Z-sequence alleles, n<24), NCV, calculated in meters per second",1.63
